Each block holds one compound with its values, some of them ahead of it.
Assays:
[1] = target: Activated CDC42 kinase 1 (Homo sapiens, UniProt Q07912); assay: Inhibition of TNK2
[2] = target: Tyrosine-protein kinase FRK (Homo sapiens, UniProt P42685); assay: Inhibition of FRK
[3] = target: Tyrosine-protein kinase Tec (Homo sapiens, UniProt P42680); assay: Inhibition of TEC
[4] = target: Mitogen-activated protein kinase kinase kinase kinase 5 (Homo sapiens, UniProt Q9Y4K4); assay: Inhibition of MAP4K5
[5] = target: Mitogen-activated protein kinase kinase kinase kinase 2 (Homo sapiens, UniProt Q12851); assay: Inhibition of MAP4K2
[6] = target: Interleukin-1 receptor-associated kinase 4 (Homo sapiens, UniProt Q9NWZ3); assay: Inhibition of IRAK4
[7] = target: Tyrosine-protein kinase ABL2 (Homo sapiens, UniProt P42684); assay: Inhibition of ABL2
[8] = target: Tyrosine-protein kinase CSK (Homo sapiens, UniProt P41240); assay: Inhibition of CSK
[9] = target: Tyrosine-protein kinase TXK (Homo sapiens, UniProt P42681); assay: Inhibition of TXK
[10] = target: Serine/threonine-protein kinase 24 (Homo sapiens, UniProt Q9Y6E0); assay: Inhibition of STK24
[11] = target: T1, High affinity nerve growth factor receptor (Homo sapiens, UniProt P04629); assay: Inhibition of TRKA
[12] = target: Misshapen-like kinase 1 (Homo sapiens, UniProt Q8N4C8); assay: Inhibition of MINK1
[13] = target: Tyrosine-protein kinase Blk (Mus musculus, UniProt P16277); assay: Inhibition of mouse BLK
[14] = target: Serine/threonine-protein kinase TBK1 (Homo sapiens, UniProt Q9UHD2); assay: Inhibition of TBK1
[15] = target: Protein-tyrosine kinase 2-beta (Homo sapiens, UniProt Q14289); assay: Inhibition of PTK2B
[16] = target: Calcium/calmodulin-dependent protein kinase type II subunit gamma (Homo sapiens, UniProt Q13555); assay: Inhibition of CAMK2G
[17] = target: Tyrosine-protein kinase HCK (Homo sapiens, UniProt P08631); assay: Inhibition of HCK
[18] = target: T2, Angiopoietin-1 receptor (Homo sapiens, UniProt Q02763); assay: Inhibition of TIE2
[19] = target: Tyrosine-protein kinase Fgr (Homo sapiens, UniProt P09769); assay: Inhibition of FGR
[20] = target: T3, BDNF/NT-3 growth factors receptor (Homo sapiens, UniProt Q16620); assay: Inhibition of TRKB
[21] = target: Tyrosine-protein kinase BTK (Homo sapiens, UniProt Q06187); assay: Inhibition of BTK
[22] = target: T2, Angiopoietin-1 receptor; assay: Inhibition of TIE2 at 10 uM
[23] = target: Tyrosine-protein kinase receptor UFO (Homo sapiens) (UniProt P30530); assay: Inhibition of AXL at 10 uM
[24] = target: Interleukin-1 receptor-associated kinase 4 (Homo sapiens) (UniProt Q9NWZ3); assay: Inhibition of IRAK4 at 10 uM
[25] = target: Tyrosine-protein kinase Fes/Fps (Homo sapiens) (UniProt P07332); assay: Inhibition of FES at 10 uM
[26] = target: T1, High affinity nerve growth factor receptor; assay: Inhibition of TRKA at 10 uM
[27] = target: T3, BDNF/NT-3 growth factors receptor; assay: Inhibition of TRKB at 10 uM

Sequence of Tyrosine-protein kinase Blk (P16277 whole entry): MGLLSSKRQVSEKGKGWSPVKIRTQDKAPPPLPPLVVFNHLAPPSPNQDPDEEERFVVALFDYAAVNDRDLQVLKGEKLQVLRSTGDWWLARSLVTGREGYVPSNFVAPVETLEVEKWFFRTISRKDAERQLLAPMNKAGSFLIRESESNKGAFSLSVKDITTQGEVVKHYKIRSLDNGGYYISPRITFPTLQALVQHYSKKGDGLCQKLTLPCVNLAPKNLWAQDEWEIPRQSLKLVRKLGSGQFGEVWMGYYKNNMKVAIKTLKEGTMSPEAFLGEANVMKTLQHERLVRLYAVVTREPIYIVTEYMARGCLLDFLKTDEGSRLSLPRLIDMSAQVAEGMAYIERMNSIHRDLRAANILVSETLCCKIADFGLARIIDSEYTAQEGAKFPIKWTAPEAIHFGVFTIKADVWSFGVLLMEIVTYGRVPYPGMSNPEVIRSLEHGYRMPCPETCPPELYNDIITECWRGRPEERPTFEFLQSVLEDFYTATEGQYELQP
T2 sequence (Q02763 whole entry): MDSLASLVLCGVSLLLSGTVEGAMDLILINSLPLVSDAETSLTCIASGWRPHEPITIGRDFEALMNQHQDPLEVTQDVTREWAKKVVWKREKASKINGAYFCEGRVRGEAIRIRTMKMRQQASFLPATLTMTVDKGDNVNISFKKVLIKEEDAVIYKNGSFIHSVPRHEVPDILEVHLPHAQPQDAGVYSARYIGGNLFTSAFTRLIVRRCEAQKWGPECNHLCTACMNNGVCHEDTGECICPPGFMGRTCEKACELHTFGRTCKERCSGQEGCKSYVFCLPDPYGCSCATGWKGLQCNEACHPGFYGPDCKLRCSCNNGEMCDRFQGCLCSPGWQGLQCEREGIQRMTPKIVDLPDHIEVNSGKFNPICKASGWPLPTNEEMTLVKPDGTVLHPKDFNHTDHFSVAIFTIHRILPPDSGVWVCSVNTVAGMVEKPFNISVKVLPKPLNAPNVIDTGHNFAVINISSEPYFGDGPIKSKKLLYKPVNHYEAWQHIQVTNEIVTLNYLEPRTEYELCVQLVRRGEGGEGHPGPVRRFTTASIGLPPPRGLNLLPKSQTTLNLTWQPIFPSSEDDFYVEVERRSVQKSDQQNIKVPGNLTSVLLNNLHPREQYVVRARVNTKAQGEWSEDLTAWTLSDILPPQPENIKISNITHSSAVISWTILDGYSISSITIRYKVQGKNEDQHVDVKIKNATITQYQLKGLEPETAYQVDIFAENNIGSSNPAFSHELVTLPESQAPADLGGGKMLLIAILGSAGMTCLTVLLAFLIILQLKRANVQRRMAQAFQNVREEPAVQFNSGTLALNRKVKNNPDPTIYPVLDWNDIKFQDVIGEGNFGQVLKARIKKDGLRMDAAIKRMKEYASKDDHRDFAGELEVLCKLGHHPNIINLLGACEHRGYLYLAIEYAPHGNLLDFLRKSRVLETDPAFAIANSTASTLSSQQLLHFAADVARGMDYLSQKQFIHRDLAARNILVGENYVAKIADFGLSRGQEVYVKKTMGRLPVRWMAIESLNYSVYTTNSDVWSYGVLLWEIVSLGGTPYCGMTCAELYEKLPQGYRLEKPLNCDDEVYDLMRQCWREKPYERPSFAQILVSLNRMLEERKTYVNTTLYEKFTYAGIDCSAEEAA
Sequence of Tyrosine-protein kinase receptor UFO (Homo sapiens) (P30530 whole entry): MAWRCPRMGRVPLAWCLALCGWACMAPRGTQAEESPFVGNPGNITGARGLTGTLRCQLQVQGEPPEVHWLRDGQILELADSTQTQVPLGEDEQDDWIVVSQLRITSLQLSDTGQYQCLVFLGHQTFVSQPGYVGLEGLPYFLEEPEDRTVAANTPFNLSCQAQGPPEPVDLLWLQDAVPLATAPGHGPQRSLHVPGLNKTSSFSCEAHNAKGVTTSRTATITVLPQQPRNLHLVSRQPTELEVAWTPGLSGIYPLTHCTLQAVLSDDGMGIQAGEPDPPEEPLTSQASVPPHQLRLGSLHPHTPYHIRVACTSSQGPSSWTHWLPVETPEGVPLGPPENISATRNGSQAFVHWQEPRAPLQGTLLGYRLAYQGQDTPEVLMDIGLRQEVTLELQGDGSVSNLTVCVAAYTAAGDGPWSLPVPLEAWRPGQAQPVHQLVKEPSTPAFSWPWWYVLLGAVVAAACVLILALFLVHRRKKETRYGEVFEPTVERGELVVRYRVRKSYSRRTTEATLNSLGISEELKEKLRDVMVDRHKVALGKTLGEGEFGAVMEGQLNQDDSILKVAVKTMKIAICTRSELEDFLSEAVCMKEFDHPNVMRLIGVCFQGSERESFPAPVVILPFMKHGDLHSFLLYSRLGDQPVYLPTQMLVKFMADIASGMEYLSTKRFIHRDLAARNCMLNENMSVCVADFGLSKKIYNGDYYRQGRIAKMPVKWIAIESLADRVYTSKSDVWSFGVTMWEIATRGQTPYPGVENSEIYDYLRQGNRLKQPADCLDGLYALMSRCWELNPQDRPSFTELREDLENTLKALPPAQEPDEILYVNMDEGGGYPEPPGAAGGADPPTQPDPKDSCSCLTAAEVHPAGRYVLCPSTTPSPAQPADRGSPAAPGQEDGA
Sequence of Tyrosine-protein kinase BTK (Q06187 whole entry): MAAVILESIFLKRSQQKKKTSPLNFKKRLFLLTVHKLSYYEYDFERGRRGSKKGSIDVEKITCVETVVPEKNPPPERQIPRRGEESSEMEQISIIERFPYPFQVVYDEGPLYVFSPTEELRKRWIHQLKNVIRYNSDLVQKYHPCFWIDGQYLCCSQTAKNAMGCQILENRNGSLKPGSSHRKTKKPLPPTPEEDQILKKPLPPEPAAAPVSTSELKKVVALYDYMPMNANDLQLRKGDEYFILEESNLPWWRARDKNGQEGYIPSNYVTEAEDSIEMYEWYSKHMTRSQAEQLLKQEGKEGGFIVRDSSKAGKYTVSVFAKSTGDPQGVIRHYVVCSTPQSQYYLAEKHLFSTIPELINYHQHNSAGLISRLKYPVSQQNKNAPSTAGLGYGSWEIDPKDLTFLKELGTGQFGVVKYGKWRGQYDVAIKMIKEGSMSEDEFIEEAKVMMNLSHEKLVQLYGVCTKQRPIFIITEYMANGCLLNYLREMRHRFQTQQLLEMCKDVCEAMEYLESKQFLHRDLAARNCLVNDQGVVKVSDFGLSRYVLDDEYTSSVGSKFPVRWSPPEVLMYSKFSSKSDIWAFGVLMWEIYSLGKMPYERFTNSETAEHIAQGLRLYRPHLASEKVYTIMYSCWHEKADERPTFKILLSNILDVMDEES
Sequence of Serine/threonine-protein kinase TBK1 (Q9UHD2 whole entry): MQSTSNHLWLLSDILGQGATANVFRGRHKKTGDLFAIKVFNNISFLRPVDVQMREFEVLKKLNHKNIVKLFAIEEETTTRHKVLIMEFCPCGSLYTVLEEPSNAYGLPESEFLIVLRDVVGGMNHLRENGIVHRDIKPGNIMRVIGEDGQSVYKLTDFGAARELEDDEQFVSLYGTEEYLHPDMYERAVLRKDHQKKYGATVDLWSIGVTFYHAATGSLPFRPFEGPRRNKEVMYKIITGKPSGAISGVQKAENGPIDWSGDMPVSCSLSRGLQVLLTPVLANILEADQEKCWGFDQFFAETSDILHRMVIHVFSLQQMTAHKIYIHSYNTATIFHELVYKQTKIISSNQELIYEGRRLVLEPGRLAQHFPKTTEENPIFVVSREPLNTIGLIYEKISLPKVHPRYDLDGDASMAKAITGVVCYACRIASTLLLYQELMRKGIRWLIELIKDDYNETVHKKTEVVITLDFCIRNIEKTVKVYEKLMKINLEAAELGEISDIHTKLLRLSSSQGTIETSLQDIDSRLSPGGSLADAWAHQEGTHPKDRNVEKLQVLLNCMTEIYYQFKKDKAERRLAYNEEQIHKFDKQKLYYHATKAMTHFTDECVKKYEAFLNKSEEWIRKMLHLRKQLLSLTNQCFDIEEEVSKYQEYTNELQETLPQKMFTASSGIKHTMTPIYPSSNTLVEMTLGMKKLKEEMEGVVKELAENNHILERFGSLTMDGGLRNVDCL
Sequence of Activated CDC42 kinase 1 (Q07912 whole entry): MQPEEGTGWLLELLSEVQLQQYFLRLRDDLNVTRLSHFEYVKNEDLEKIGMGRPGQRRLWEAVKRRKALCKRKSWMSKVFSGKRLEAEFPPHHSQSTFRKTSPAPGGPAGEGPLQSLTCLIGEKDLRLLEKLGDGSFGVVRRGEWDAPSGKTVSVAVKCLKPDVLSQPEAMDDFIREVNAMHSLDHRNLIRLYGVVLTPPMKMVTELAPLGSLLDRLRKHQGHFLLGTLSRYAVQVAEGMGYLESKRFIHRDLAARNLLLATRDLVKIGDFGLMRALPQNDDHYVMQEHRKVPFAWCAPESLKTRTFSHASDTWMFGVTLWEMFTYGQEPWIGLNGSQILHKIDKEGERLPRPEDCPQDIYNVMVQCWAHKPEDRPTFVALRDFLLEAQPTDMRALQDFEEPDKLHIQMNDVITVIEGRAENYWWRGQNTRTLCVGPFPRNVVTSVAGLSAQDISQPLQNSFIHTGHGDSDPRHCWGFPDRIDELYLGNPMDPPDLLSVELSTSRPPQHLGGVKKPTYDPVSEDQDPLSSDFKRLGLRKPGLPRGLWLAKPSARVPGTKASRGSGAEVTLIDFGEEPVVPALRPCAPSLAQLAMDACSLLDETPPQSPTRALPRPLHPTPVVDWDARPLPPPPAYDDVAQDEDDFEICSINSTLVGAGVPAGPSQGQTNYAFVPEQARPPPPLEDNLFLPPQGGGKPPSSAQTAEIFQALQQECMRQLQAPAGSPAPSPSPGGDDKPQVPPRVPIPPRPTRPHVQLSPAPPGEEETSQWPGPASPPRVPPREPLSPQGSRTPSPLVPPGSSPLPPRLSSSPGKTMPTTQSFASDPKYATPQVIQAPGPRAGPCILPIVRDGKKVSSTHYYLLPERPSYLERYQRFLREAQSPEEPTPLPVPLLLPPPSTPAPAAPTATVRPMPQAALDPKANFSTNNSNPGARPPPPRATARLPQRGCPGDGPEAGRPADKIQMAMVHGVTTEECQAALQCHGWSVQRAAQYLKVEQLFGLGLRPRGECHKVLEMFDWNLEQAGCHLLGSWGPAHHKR

IC50 [1]: 2.7 nM | IC50 [2]: 2.2 nM | IC50 [3]: 282 nM | IC50 [4]: 0.3 nM | IC50 [5]: 9.9 nM | IC50 [6]: 574 nM | IC50 [7]: 0.5 nM | IC50 [8]: 63 nM | IC50 [9]: 40 nM | IC50 [10]: 3.9 nM | IC50 [11]: 22 nM | IC50 [12]: 22 nM | IC50 [13]: 7.3 nM | IC50 [14]: 471 nM | IC50 [15]: 134 nM | IC50 [16]: 184 nM | IC50 [17]: 3.2 nM | IC50 [18]: 1190 nM | IC50 [19]: 1.1 nM | IC50 [20]: 27 nM | IC50 [21]: 2.5 nM
SMILES: COc1cc(Nc2c(C#N)cnc3cc(OCCCN4CCN(C)CC4)c(OC)cc23)c(Cl)cc1Cl [BOSUTINIB]

residual activity [22]: 48% | residual activity [23]: 86% | residual activity [24]: 84% | residual activity [25]: 83% | IC50 [13]: 8 nM | residual activity [26]: 35% | residual activity [27]: 52%
SMILES: Cc1nc(Nc2ncc(C(=O)Nc3c(C)cccc3Cl)s2)cc(N2CCN(CCO)CC2)n1 [DASATINIB]
